From PMC7601839, “Anti-Acne Effects of Cembrene Diterpenoids from the Cultured Soft Coral Sinularia flexibilis” (Marine Drugs, 2020)

Experiments:
HaCaT cells [1] = settings: 20 nM, 48 h
Description: HaCaT cells (10^5 cells/mL) were seeded in 96-well plates and co-treated with testosterone (5 μg/mL) or DHT (5 μg/mL) and test samples with no cytotoxicity for 48 h [2, 25, 26]. Cell proliferative activity was detected by an MTT assay.

[2] = system: LPS-induced RAW 264.7 cells (NO production); assay: NO production (Griess) in LPS-induced RAW 264.7 cells; format: cell-based
Description: (§1) Anti-inflammatory effects were analyzed in RAW 264.7 cells, which were cultured in DMEM with 10% FBS, 1% L-glutamine, and 1% penicillin-streptomycin, and maintained at 37 °C in a 5% CO2 atmosphere. RAW 264.7 cells (4.0 × 10^5 cells/mL) were seeded in 96-well plates and co-treated with LPS (500 ng/mL) and test samples. After 24 h, NO production was determined by Griess reagent, and the absorption was detected at 530 nm. The percentage inhibition of NO production was presented as the anti-inflammatory activity. PGE2 concentrations in cell culture media were determined with a PGE2 enzyme-linked immunosorbent assay (ELISA) kit (Enzo Life Sciences, Farmingdale, NY, USA). The survival rate of RAW 264.7 cells was detected using an MTT assay.

[3] = Survival rate of RAW 264.7 cells by MTT assay; format: cell-based; settings: mouse, LPS-induced RAW 264.7 cells, read-out: Cell Viability (%)
Description: as §1

iNOS [4] = system: iNOS; design: method as in PMID 23774887; settings: LPS-stimulated RAW264.7 macrophage cells; cited from earlier work
[5] = system: LPS-induced RAW 264.7 cells (PGE2 production); assay: PGE2 production (ELISA) in LPS-induced RAW 264.7 cells; format: cell-based; settings: 24 h
Description: as §1

[6] = system: HKC-induced RAW 264.7 cells (NO production); assay: NO production (Griess) in heat-killed C. acnes (HKC)-induced RAW 264.7 cells; format: cell-based; settings: Mus musculus, RAW264.7, 24 h, read-out: IC50 Value of NO Inhibition
Description: (§2) C. acnes (4 × 10^8 cfu/mL) was heated at 80 °C for 30 min and killed. Heat-killed C. acnes (HKC) was freeze-dried as a powder and maintained at 4 °C until use. RAW 264.7 and HaCaT cells were cultured in DMEM with 10% FBS, 1% penicillin-streptomycin, and 1% L-glutamine at 37 °C in a 5% CO2 atmosphere. RAW 264.7 cells (4 × 10^5 cells/mL) and HaCaT cells (10^5 cells/mL) were seeded in six-well plates and co-treated with HKC (300 μg/mL) and test samples [24]. After 24 h, NO production was determined by adding the Griess reagent in the cell culture medium, and the absorption was measured in an ELISA reader at 530 nm. The sample culture medium was removed, and RAW 264.7 cells and HaCaT cells were washed with PBS.

p-ERK [7] = assay: Western blot of p-ERK in LPS-induced RAW 264.7 cells; format: cell-based; settings: 30 min, SC-2 2.5–20 μM, SC-7 5–40 μM, SC-9 2.5–20 μM
Description: (§3) Whole-cell lysates were prepared using radioimmunoprecipitation (RIPA) assay. Proteins in lysate samples (30 μg) were analyzed using 10% sodium dodecylsulfate-polyacrylamide gel electrophoresis (SDS-PAGE). Gels were transferred to nitrocellulose membranes and probed with primary iNOS (clone N-20), COX-2 (clone C-20), p-ERK (clone N-20), p-JNK (clone N-20), and glyceraldehyde-3-phosphate dehydrogenase (GAPDH; clone 6C5) antibodies (Santa Cruz Biotechnology, Santa Cruz, CA, USA). Membranes were visualized with a BCIP/NBT kit (Gibco BRL, Grand Island, NY, USA). Protein expression was quantified using the Azure Biosystem C300 Imaging System. GAPDH expression was used as an internal control to compare with protein expressions of iNOS, COX-2, p-ERK, and p-JNK [24].

p-JNK [8] = assay: Western blot of p-JNK in LPS-induced RAW 264.7 cells; format: cell-based; settings: 30 min, SC-2 2.5–20 μM, SC-7 5–40 μM, SC-9 2.5–20 μM
Description: as §3

COX-2 [9] = assay: Western blot of COX-2 in LPS-induced RAW 264.7 cells; format: cell-based; settings: 6 h and 24 h
Description: as §3

iNOS [10] = assay: Western blot of iNOS in LPS-induced RAW 264.7 cells; format: cell-based; settings: 24 h
Description: as §3

p-ERK [11] = assay: Western blot of p-ERK in HKC-treated RAW 264.7 cells; format: cell-based; settings: SC-2 2.5–20 μM, SC-7 5–40 μM, SC-9 2.5–20 μM
Description: as §3, §2

p-JNK [12] = assay: Western blot of p-JNK in HKC-treated RAW 264.7 cells; format: cell-based; settings: SC-2 2.5–20 μM, SC-7 5–40 μM, SC-9 2.5–20 μM
Description: as §3, §2

iNOS [13] = assay: Western blot of iNOS in HKC-treated RAW 264.7 cells; format: cell-based
Description: as §3, §2

COX-2 [14] = assay: Western blot of COX-2 in HKC-treated RAW 264.7 cells; format: cell-based
Description: as §3, §2

HaCaT cells [15] = assay: Cytotoxicity analysis in HaCaT cells; format: cell-based, human
p-ERK [16] = assay: Western blot of p-ERK in HKC-treated HaCaT cells; format: cell-based, human; settings: 30 min after HKC induction
Description: as §3, §2

[17] = system: Testosterone-induced HaCaT cells; assay: Anti-proliferative activity in testosterone-treated HaCaT cells (MTT); format: cell-based, human
Description: (§4) HaCaT cells (10^5 cells/mL) were seeded in 96-well plates and co-treated with testosterone (5 μg/mL) or DHT (5 μg/mL) and test samples with no cytotoxicity for 48 h. Cell proliferative activity was detected by an MTT assay.

[18] = system: Dihydrotestosterone-induced HaCaT cells; assay: Anti-proliferative activity in dihydrotestosterone-treated HaCaT cells (MTT); format: cell-based, human
Description: as §4

COX-2 [19] = system: COX-2; design: method as in PMID 23774887; settings: LPS-stimulated RAW264.7 macrophage cells; cited from earlier work

## C[C@]12CC[C@H]3[C@@H](CCC4=CC(=O)CC[C@@]43C)[C@@H]1CC[C@@H]2O [testosterone]
HaCaT cells [1]
  HaCaT cell proliferation: significantly induced

## C/C1=C\CC[C@](C)(O)[C@H]2C[C@@H](CC[C@]3(C)O[C@H]3CC1)[C@H](C)C(=O)O2 [SC-10, dihydrosinularin]
[2]
  inhibitory effects on NO expression: no inhibitory effects
[2]; Mus musculus, RAW264.7, 24 h
  inhibition at 20 µM: 28.2 ± 4.6%
[3]
  viability at 24 h, 20 µM: 117 ± 1.9%

## C=C1C(=O)O[C@]2(C)CC[C@@H]1C[C@@H]1O[C@@]1(C)C/C=C/[C@@](C)(OO)CCC2=O [flexilarin D]
iNOS [4]
  accumulation of the proinflammatory iNOS protein: significantly inhibit

## flexibilisolides D
iNOS [4]
  accumulation of the proinflammatory iNOS protein: significantly inhibit

## C=C1C(=O)OC2(C)CCC1CC1OC1(C)CCC=C(C)CCC2=O (centres unmarked) [SC-2, 11-dehydrosinulariolide]
[2]; Mus musculus, RAW264.7, 24 h
  inhibition at 20 µM: 92.4 ± 3%
[2]; Mus musculus, RAW264.7, 24 h, read-out: IC50 Value of NO Inhibition
  IC50: 5.66 ± 0.19 µM
[3]
  viability at 24 h, 20 µM: 102 ± 9.4%
[5]
  inhibitory effect on prostaglandin E2 (PGE2) production: no inhibitory effect
[6]
  IC50: 5.81 ± 0.4 µM
p-ERK [7]
  p-ERK protein expression: dose-dependent inhibitory effects
p-JNK [8]
  p-JNK protein expression: dose-dependent inhibitory effects
COX-2 [9]
  COX-2 protein expression: did not present identical COX-2 inhibitory effects
iNOS [10]
  iNOS protein expression: decreased iNOS protein expression
p-ERK [11]
  p-ERK expression: good inhibitory effects
p-JNK [12]
  p-JNK expression: good inhibitory effects
iNOS [13]
  iNOS expression: significant inhibitory effects
COX-2 [14]
  COX-2 expression: no changes
HaCaT cells [15]; HaCaT cells
  concentrations with no cytotoxicity to HaCaT cells: 1250 to 10000 nM
HaCaT cells [15]; at high doses
  growth inhibition of HaCaT cells: caused growth inhibition
p-ERK [16]
  p-ERK protein expression: significant inhibitory effects
[17]; Homo sapiens, testosterone-induced HaCaT cells, 1.25 μM
  inhibition at 1.25 µM: 11.9 ± 5.5%
[17]; Homo sapiens, testosterone-induced HaCaT cells, 2.5 μM
  inhibition at 2.5 µM: 13.5 ± 1.1%
[17]; Homo sapiens, testosterone-induced HaCaT cells, 5 μM
  inhibition at 5 µM: 17.4 ± 2.8%
[17]; SC-2 1.25–5, SC-7 2.5–10, SC-9 0.08–0.32 μM, 48 h
  testosterone-induced HaCaT cell proliferation: significantly decreased
[18]; HaCaT keratinocytes
  keratinocyte over-proliferation by DHT: inhibited keratinocyte over-proliferation
[18]; Homo sapiens, dihydrotestosterone-induced HaCaT cells, 1.25 μM
  inhibition at 1.25 µM: 10.6 ± 3%
[18]; Homo sapiens, dihydrotestosterone-induced HaCaT cells, 2.5 μM
  inhibition at 2.5 µM: 12.3 ± 3.1%
[18]; Homo sapiens, dihydrotestosterone-induced HaCaT cells, 5 μM
  inhibition at 5 µM: 16.8 ± 4%
iNOS [4]
  accumulation of the proinflammatory iNOS protein: significantly inhibit
COX-2 [19]
  accumulation of COX-2 protein: could reduce
